Measured values: ChEMBL document CHEMBL3421561, “CNS drug design: balancing physicochemical properties for optimal brain exposure” (J Med Chem, 2015)

What was measured:
Brain = experiment: AUC in rat brain at 10 mg/kg, sc; format: ADME, organism-based; parameters: dose 10 mg/kg, route subcutaneous; settings: in vivo
[1] = AUC in rat interstitial fluid at 10 mg/kg, sc by transcortical microdialysis; format: ADME, organism-based; parameters: dose 10 mg/kg, route subcutaneous; settings: in vivo
[2] = Ratio of unbound drug in brain to plasma in mouse; format: ADME, organism-based; settings: brain and plasma, read-out: K(p,uu,brain)
[3] = Apparent permeability of the compound; settings: not told
[4] = Ratio of drug uptake in brain to plasma in rat; format: ADME; settings: brain and plasma
[5] = Oral bioavailability in dog; format: ADME, organism-based, Canis lupus familiaris; settings: in vivo
[6] = Half life in dog; format: ADME, organism-based, Canis lupus familiaris; settings: in vivo
[7] = Solubility of the compound; format: physicochemical
Rattus norvegicus = experiment: AUC (0 to 1 hr) in rat at 0.5 mg/kg, iv; format: ADME, organism-based, Plasma; parameters: time < 1 hr, dose 0.5 mg/kg, route intravenous; settings: in vivo
Gerbillinae = experiment: Antagonist activity at NK1 receptor in substance P-induced gerbil foot tapping model
Mu-type opioid receptor = Mu-type opioid receptor (Homo sapiens, UniProt P35372); experiment: biochemical; format: cell-based, 293T
Mu-type opioid receptor, sequence (P35372 whole entry): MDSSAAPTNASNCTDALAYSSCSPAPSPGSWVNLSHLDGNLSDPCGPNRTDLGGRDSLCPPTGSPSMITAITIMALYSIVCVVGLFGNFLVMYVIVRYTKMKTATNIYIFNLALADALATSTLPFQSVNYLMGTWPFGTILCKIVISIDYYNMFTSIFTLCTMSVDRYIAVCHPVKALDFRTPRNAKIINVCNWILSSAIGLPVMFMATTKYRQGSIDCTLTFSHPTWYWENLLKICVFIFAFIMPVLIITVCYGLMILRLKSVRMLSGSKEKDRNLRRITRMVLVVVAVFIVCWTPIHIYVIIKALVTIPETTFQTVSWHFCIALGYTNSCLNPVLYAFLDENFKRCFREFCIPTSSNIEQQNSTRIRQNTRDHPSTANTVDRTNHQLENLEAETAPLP
Description: Displacement of [3H]naloxone from MOR (unknown origin) expressed in human 293T cells

[8] = Ratio of unbound drug in brain to plasma in rat; format: ADME; settings: brain and plasma, read-out: K(p,uu,brain)
Substance-P receptor = Substance-P receptor (Homo sapiens, UniProt P25103); experiment: Antagonist activity at NK1 receptor (unknown origin)
Substance-P receptor, sequence (P25103 whole entry): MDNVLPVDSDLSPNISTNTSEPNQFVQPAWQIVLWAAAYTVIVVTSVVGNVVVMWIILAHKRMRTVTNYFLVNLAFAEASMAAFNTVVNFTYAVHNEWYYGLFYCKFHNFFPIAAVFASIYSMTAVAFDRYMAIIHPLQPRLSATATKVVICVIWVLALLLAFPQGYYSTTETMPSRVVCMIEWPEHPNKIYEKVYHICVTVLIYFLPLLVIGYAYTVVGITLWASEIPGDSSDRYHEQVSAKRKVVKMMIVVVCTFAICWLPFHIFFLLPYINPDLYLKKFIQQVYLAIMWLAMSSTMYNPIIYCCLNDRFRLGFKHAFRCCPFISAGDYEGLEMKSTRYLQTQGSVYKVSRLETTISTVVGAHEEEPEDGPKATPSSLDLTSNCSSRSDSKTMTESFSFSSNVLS

Row | SMILES | AUC (Brain) [µM/min] | AUC [1] [µM/min] | Kp [4] | AUC (Rattus norvegicus) [ng·h/g] | MED (Gerbillinae) [mg/kg] | also measured
1 | CN1CC[C@]23c4c5ccc(O)c4O[C@H]2[C@@H](O)C=C[C@H]3[C@H]1C5 [MORPHINE] | 186 | 79 | – | – | – | –
2 | COc1ccc(C(CN(C)C)C2(O)CCCCC2)cc1 (centres undefined) [VENLAFAXINE] | – | – | – | – | – | Kp uu [2]: 0.98
3 | CC(C)(C)c1ccc(C(O)CCCN2CCC(C(O)(c3ccccc3)c3ccccc3)CC2)cc1 (centres undefined) [TERFENADINE] | – | – | – | – | – | Papp [3]: 28.5 ×10⁻⁶ cm/s
4 | C[C@H](NC(=O)[C@@](C)(Cc1c[nH]c2ccccc12)NC(=O)OCc1cc2ccccc2o1)c1ccccc1 | – | – | 0.4 | 120 | 30 | bioavailability [5]: 60%; half-life [6]: > 6 h; solubility [7]: < 2 µg/mL
5 | CN1CC[C@]23c4c5ccc(O)c4O[C@H]2[C@@H](O[C@@H]2O[C@H](C(=O)O)[C@@H](O)[C@H](O)[C@H]2O)C=C[C@H]3[C@H]1C5 [MORPHINE GLUCURONIDE] | 42 | 336 | 0.05 | – | – | Ki (Mu-type opioid receptor): 63 nM; Kp uu [8]: 0.56
6 | C[C@H](NC(=O)[C@](Cc1c[nH]c2ccccc12)(CN(C)C)NC(=O)OCc1cc2ccccc2o1)c1ccccc1 | – | – | 6 | 50 | 1 | IC50 (Substance-P receptor): 0.5 nM
